Measured values as given in patent US9926302B2, “Heteroaryl substituted heterocyclyl sulfones” (priority 2014, dated 2018).

Target: T1, Human CaV2.2 channels (Homo sapiens, UniProt Q00975)
T1 construct: expressed in transfected cells
Assay: Fluorescence assay for CaV2.2 channels using potassium depolarization to induce channel opening (FLIPR, Fluo 4)
Assay type: cell-based
Conditions: alternative assay buffer 30 mM KCl (inactivated channel state), HEK293 cells stably expressing human CaV2.2; for Activity Category: %-Inhib (CaV2.2) @3 μM @30 mM KCl: 3 μM test compound; for inhibition at 3 µM: HEK293, 3 μM test compound, read-out: Activity Category: %-Inhib (CaV2.2) @3 μM @30 mM KCl
Summary of the method: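 HEK293 cells stably co-expressing CaV2.2 with alpha2-delta and beta subunits plus Kir2.3, loaded with 2 μM Fluo 4 and pre-incubated 15 min at 25° C with compound in 1 mM or 30 mM KCl buffer (pH 7.4; latter promotes inactivated state). Depolarized by KCl addition; peak fluorescence amplitude normalized to baseline gives inhibition.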

T1 sequence (P54289 947-1103): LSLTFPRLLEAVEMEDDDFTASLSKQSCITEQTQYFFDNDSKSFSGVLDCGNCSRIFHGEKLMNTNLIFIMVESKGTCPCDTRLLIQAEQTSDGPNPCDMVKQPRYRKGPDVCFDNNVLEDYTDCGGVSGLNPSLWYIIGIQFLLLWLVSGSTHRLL
T1 sequence (P54289 25-946): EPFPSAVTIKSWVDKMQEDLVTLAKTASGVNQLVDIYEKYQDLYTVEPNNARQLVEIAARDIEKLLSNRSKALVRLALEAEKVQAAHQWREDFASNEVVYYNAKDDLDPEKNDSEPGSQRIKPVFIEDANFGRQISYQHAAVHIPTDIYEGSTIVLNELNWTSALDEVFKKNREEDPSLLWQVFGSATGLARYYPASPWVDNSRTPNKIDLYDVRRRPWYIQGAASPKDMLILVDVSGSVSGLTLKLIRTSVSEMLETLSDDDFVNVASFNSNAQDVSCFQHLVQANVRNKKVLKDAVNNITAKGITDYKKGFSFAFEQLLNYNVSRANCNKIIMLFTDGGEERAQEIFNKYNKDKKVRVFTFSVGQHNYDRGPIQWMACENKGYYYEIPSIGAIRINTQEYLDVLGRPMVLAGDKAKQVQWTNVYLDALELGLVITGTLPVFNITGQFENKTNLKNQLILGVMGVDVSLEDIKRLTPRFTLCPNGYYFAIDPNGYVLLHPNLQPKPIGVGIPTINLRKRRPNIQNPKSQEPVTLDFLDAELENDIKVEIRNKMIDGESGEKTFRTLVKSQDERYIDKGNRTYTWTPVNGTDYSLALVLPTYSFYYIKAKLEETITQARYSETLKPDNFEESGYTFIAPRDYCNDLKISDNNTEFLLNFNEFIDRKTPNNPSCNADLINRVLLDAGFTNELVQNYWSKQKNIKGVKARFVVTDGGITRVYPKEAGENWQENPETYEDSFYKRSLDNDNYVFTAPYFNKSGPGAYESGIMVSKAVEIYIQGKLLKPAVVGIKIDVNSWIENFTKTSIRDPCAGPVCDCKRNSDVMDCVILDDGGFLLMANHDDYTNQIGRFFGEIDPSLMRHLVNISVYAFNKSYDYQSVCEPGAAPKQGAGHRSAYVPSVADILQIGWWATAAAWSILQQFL
T1 sequence (P54284 whole entry, further chain): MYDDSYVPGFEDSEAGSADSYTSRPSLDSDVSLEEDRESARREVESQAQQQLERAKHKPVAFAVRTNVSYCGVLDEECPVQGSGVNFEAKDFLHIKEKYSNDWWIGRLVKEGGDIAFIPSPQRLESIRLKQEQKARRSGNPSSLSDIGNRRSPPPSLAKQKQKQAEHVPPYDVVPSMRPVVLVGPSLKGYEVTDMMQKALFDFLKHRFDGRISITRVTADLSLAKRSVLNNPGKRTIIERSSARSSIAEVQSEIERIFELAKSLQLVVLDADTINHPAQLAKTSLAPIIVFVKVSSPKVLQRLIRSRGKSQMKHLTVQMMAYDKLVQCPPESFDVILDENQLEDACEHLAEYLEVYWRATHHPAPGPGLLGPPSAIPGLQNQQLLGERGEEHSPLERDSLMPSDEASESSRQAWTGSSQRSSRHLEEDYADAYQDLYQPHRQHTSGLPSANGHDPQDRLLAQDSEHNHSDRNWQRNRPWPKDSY
T1 sequence (Q00975 whole entry): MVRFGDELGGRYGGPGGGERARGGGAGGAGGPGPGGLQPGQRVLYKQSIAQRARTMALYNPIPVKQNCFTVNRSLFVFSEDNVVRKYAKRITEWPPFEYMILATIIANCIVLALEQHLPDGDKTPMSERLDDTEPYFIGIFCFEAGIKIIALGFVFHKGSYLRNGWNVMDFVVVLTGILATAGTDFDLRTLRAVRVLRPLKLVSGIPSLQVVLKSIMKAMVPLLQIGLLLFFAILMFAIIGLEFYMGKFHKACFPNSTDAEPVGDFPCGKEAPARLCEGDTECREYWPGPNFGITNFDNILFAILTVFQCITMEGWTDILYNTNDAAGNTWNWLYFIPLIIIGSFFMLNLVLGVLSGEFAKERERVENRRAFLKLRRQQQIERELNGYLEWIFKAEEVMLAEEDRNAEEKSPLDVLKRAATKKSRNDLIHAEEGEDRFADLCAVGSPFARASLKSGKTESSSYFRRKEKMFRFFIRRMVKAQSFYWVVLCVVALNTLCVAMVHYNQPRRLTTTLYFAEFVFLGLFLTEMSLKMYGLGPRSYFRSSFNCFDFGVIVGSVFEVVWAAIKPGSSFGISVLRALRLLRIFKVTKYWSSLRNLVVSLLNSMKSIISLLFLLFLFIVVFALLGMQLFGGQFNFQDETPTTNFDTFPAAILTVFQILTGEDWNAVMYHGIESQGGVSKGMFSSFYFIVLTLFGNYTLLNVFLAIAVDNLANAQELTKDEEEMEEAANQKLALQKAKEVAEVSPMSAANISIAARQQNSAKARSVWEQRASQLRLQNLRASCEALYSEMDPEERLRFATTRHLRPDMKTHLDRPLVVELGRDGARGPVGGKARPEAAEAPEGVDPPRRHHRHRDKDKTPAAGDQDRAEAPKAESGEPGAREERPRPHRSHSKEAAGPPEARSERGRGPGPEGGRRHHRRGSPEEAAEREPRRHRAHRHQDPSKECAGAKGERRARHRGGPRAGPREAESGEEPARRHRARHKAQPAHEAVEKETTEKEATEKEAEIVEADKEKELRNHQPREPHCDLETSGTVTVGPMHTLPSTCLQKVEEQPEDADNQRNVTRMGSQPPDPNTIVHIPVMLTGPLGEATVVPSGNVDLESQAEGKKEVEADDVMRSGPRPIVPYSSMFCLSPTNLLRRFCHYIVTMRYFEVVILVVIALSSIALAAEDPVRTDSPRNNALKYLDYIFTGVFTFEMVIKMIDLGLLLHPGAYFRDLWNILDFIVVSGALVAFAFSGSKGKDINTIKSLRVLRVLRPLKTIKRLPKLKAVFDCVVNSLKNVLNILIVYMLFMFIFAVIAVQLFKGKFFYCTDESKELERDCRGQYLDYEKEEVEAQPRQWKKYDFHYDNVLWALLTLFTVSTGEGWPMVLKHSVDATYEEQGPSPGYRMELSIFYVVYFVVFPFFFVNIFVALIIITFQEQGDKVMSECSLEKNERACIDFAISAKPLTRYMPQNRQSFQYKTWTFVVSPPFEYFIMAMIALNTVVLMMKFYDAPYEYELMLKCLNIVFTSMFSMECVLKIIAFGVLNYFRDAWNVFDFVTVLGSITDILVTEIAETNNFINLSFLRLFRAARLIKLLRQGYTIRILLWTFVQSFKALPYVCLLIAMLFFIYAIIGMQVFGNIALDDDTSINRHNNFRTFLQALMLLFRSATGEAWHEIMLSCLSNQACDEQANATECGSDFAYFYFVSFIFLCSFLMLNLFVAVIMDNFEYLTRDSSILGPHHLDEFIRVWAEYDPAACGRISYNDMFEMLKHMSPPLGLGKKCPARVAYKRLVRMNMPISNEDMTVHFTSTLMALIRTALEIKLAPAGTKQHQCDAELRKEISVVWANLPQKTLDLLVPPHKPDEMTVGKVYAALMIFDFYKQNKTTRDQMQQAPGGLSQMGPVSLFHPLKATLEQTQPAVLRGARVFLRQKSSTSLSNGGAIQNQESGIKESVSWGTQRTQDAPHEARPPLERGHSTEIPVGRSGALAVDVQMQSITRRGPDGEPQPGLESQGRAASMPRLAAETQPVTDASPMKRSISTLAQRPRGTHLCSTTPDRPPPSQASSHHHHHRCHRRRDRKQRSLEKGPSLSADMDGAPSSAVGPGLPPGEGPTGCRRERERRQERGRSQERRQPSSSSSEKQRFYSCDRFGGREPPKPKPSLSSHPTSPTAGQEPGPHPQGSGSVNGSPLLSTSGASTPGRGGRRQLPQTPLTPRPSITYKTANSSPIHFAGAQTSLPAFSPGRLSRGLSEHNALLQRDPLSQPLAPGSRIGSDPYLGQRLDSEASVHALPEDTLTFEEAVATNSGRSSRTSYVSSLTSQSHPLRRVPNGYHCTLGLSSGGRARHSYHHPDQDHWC

SMILES | Activity Category: %-Inhib (CaV2.2) @3 μM @30 mM KCl | inhibition at 3 µM
Cn1nc(C2CC2)cc1C1CC(C)(S(=O)(=O)c2cccc(C(F)(F)F)c2)CCO1 (stereo not drawn) [SC-432, 3-Cyclopropyl-1-methyl-5-[4-methyl-4-[[3-(trifluoromethyl)phenyl]sulfonyl]-tetrahydro-pyran-2-yl]-1H-pyrazole] | A (%-Inhibition >95%) | 
CC1(S(=O)(=O)c2cccc(OC(F)F)c2)CCOC(c2ncc(S(C)(=O)=O)cc2Cl)C1 (stereo not drawn) [SC-436, 3-Chloro-2-[4-[[3-(difluoro-methoxy)-phenyl]sulfonyl]-4-methyl-tetrahydro-pyran-2-yl]-5-methylsulfonyl-pyridine] | C (%-Inhibition >40% up to ≤75%) | 
CC1(S(=O)(=O)c2cccc(OC(F)F)c2)CCOC(c2ncc(S(C)(=O)=O)cc2Cl)C1 (stereo not drawn) [SC-437, 3-Chloro-2-[4-[[3-(difluoro-methoxy)-phenyl]sulfonyl]-4-methyl-tetrahydro-pyran-2-yl]-5-methylsulfonyl-pyridine] | B (%-Inhibition >75% up to ≤95%) | 
CC1(S(=O)(=O)c2cccc(Cl)c2)CCOC(c2ncc(S(C)(=O)=O)cc2Cl)C1 (stereo not drawn) [SC-439, 3-Chloro-2-[4-[(3-chlorophenyl)sulfonyl]-4-methyl-tetrahydro-pyran-2-yl]-5-methylsulfonyl-pyridine] | C (%-Inhibition >40% up to ≤75%) | 
CC1(S(=O)(=O)c2cccc(Cl)c2)CCOC(c2ncc(S(C)(=O)=O)cc2Cl)C1 (stereo not drawn) [SC-440, 3-Chloro-2-[4-[(3-chlorophenyl)sulfonyl]-4-methyl-tetrahydro-pyran-2-yl]-5-methylsulfonyl-pyridine] | B (%-Inhibition >75% up to ≤95%) | 
Cc1cc(S(C)(=O)=O)cnc1C1CC(C)(S(=O)(=O)c2cc(F)cc(C(F)F)c2)CCO1 (stereo not drawn) [SC-442, 2-[4-[[3-(Difluoro-methyl)-5-fluoro-phenyl]sulfonyl]-4-methyl-tetrahydro-pyran-2-yl]-3-methyl-5-methylsulfonyl-pyridine] |  | 40 to 75%
Cc1cc(S(C)(=O)=O)cnc1C1CC(C)(S(=O)(=O)c2cc(F)cc(C(F)(F)F)c2)CCO1 (stereo not drawn) [SC-444, 2-[4-[[3-Fluoro-5-(trifluoromethyl)-phenyl]sulfonyl]-4-methyl-tetrahydro-pyran-2-yl]-3-methyl-5-methylsulfonyl-pyridine] | B (%-Inhibition >75% up to ≤95%) | 
Cc1cc(S(C)(=O)=O)cnc1C1CC(C)(S(=O)(=O)c2cc(F)cc(C(F)(F)F)c2)CCO1 (stereo not drawn) [SC-445, 2-[4-[[3-Fluoro-5-(trifluoromethyl)-phenyl]sulfonyl]-4-methyl-tetrahydro-pyran-2-yl]-3-methyl-5-methylsulfonyl-pyridine] | C (%-Inhibition >40% up to ≤75%) | 
CC(C)c1cccc(S(=O)(=O)C2(C)CCOC(c3ncc(S(C)(=O)=O)cc3Cl)C2)c1 (stereo not drawn) [SC-446, 3-Chloro-2-[4-[(3-isopropyl-phenyl)sulfonyl]-4-methyl-tetrahydro-pyran-2-yl]-5-methylsulfonyl-pyridine] |  | 75 to 95%
CC(C)c1cccc(S(=O)(=O)C2(C)CCOC(c3ncc(S(C)(=O)=O)cc3Cl)C2)c1 (stereo not drawn) [SC-447, 3-Chloro-2-[4-[(3-isopropyl-phenyl)sulfonyl]-4-methyl-tetrahydro-pyran-2-yl]-5-methylsulfonyl-pyridine] | A (%-Inhibition >95%) | 
Cc1cc(S(C)(=O)=O)cnc1C1CC(C)(S(=O)(=O)c2cccc(OC(F)(F)F)c2)CCO1 (stereo not drawn) [SC-449, 3-Methyl-5-methylsulfonyl-2-[4-methyl-4-[[3-(trifluoromethyloxy)-phenyl]sulfonyl]-tetrahydro-pyran-2-yl]-pyridine] | B (%-Inhibition >75% up to ≤95%) | 
Cc1cc(S(C)(=O)=O)cnc1C1CC(C)(S(=O)(=O)c2cccc(OC(F)(F)F)c2)CCO1 (stereo not drawn) [SC-450, 3-Methyl-5-methylsulfonyl-2-[4-methyl-4-[[3-(trifluoromethyloxy)-phenyl]sulfonyl]-tetrahydro-pyran-2-yl]-pyridine] | C (%-Inhibition >40% up to ≤75%) | 
